Measurements: ChEMBL document CHEMBL2094260, “Malaria Box Tuberculosis Screening Data”

Experiments:
[1] = system: Mycobacterium tuberculosis; test: MMV: Screen against Mtb, single point, non replicating, at 25uM; format: functional
[2] = system: Mycobacterium tuberculosis; test: MMV: Screen against Mtb, single point, replicating, at 25uM; format: functional

Compound | inhibition at 25 µM [1] [%] | inhibition at 25 µM [2] [%]
O=[N+]([O-])c1ccc(C=NNc2nc3ccccc3[nH]2)cc1 | 16.2 | 16.3
CCOc1cc2c(cc1OCC)C(c1cc(OC)c(O)cc1Cl)NCC2 (configuration not stated) | 13.6 | 23.3
CCOC(=O)C1=C(C)N=c2sc(=Cc3ccccc3O)c(=O)n2C1c1ccc(OC)c2ccccc12 (configuration not stated) | 24.4 | 4
CSC1=NC(=Nc2c(C)cccc2C)C2(CCC(C(C)(C)C)CC2)N1c1ccc(Cl)cc1 (configuration not stated) | 9.94 | 1.28
O=C(Nc1ccc(N2CCN(Cc3ccccc3)CC2)cc1)c1cccs1 | 6.45 | 11
Nc1nc(Nc2cccc(F)c2)nc2ccccc12 | 9.12 | 13.4
CCOC(=O)c1c(C)n(-c2ccccc2)c2ccc(OC(=O)c3cc(OC)c(OC)c(OC)c3)cc12 | 6.46 | 22.2
CN(C)CCCNc1c2ccccc2nc2ccccc12 | 17.8 | 18.4
COc1ccc2nc(C)cc(Nc3cccc(O)c3)c2c1 | 8.19 | 7.96
Cc1ccc(N2C3c4ccccc4N(S(=O)(=O)c4ccc(C)cc4)C2c2ccccc2N3S(=O)(=O)c2ccc(C)cc2)cc1 | 18 | 4.16
COc1ccc2nc(C)cc(Nc3ccc(Cl)cc3)c2c1 | 7.32 | 41.2
CCOC(=O)c1cn(CC)c2cc(N3CCCCC3)c(F)cc2c1=O | 6.27 | 45
COc1ccc(-c2nc(NC(=O)CS(=O)(=O)c3ccc(F)cc3)sc2C)cc1 | 21.5 | 14.9
O=C(Cc1ccccc1)NC(c1ccc(Cl)cc1)c1c(O)ccc2ccccc12 (configuration not stated) | -0.46 | 12
c1ccc(/C2=N/c3ccccc3/N=C(/c3ccccc3)c3ccccc32)cc1 | 23.5 | 22.3
CCOC(=O)c1cnc2c(C)cccc2c1Nc1ccc(C(C)=O)cc1 | 8.24 | 0.392
COc1ccccc1N1C(=N)SC(=Cc2ccc(OCc3ccccc3F)cc2)C1=O | 21.4 | 8.86
CCOc1ccc(C2N(C)c3ccccc3N2C)cc1 | 11.7 | 8.11
CCOc1c(Cl)cc(CNC(C)C(O)c2ccccc2)cc1OC (configuration not stated) | 10.3 | 12.7
Cc1sc2ncnc(Sc3nc4ccccc4[nH]3)c2c1C | 22.5 | 14.9
Cc1ccccc1OCCSc1nc2ccc(NC(=O)c3cccs3)cc2s1 | 16.4 | 51.3

Compound | inhibition at 25 µM [1] [%] | inhibition at 25 µM [2] [%]
CN(C)c1ccc(N=Cc2ccc(N3CCOCC3)cc2)cc1 | -1.53 | 38.8
COc1cccc(-c2nn(C)c3sc(C(=O)NCCN4CCN(c5ccccc5F)CC4)cc23)c1 | 14.8 | 29.5
CCOc1ccc(N2C(N)=NC(N)=NC2(C)C)cc1 | 8.77 | -0.705
Cc1ccc(CN2CCC(C(=O)Nc3ccc(-c4cc5ccccc5[nH]4)cc3)CC2)o1 | 22.9 | 8.26
Oc1c2c(nc3cc(-c4ccccc4)nn13)CCCC2 | 10.3 | 19.8
OC(CNCC1CCCO1)Cn1c2ccc(Cl)cc2c2cc(Cl)ccc21 (configuration not stated) | 20.4 | 1.28
CCc1ccc(Nc2cc(C)c3ccc(O)cc3n2)cc1 | 17.3 | 4.16
Cc1cc(C)cc(Nc2cc(C)nc3nc(C(F)(F)F)nn23)c1 | 4.53 | 7.5
COc1ccc(CNC2CCN(c3ccc(NC(=O)c4cccc(Cl)c4)cc3)CC2)cc1OC | 19.2 | 47.3
COc1ccc(-c2cc3c(SCC(=O)Nc4cc(C(F)(F)F)ccc4Cl)nccn3n2)cc1 | 15 | 10.2
N=c1c2ccccc2nnn1-c1cccc(C(F)(F)F)c1 | -4.19 | 7.29
COc1ccc(NC(=O)C2c3ccccc3C(=O)N(CC(C)C)C2c2cccs2)cc1 (configuration not stated) | 3.3 | 4.77
O=C(NCc1ccco1)C1CCN(S(=O)(=O)c2ccc(Cl)cc2)CC1 | 12.4 | 46.4
COc1ccc(C(=O)Nc2ccc3nc(N4CCCCC4)cc(C)c3c2)cc1OC | 23.7 | 21.3
COc1cc(OC)cc(N2C(=O)N(Cc3ccc(C(C)(C)C)cc3)c3ccccc3S2(=O)=O)c1 | 13.6 | 2.59
COc1cc(C(=O)Nc2nc3c(cc4c5c(cccc53)CC4)s2)cc(OC)c1OC | 17.8 | -3.53
CC(C)(C)c1ccc2c(c1)CN(Cc1ccc(Cl)cc1)CO2 | 41.2 | 48.4
CCOc1cc2c(cc1OCC)C(c1cc(C)c(O)c(C)c1)NCC2 (configuration not stated) | 11.5 | 10.8
CCCCNc1nc(NC(C)(C)C)nc(NC(C)(C)C)n1 | 42.1 | 32.8
CCOc1ccc(-c2nc(NC(=O)c3cccc(S(C)(=O)=O)c3)sc2C)cc1 | 11.7 | 54.3
CC(C)(C)C(=O)Nc1ccc(C(=O)Nc2cccc(-c3nc4ccccc4[nH]3)c2)cc1 | 8.19 | 10.8

Compound | inhibition at 25 µM [1] [%] | inhibition at 25 µM [2] [%]
O=C(CCl)NCCOc1ccc(Cl)cc1Cl | 25.3 | 35
CCN(CC)CCNc1ccnc2cc(Cl)ccc12 | 18.3 | 4.01
Cn1c(C(=O)c2cccc3ccccc23)nc2ccccc21 | 31.5 | 4.31
CCc1ccc(CNCC(O)c2ccccc2)cc1 (configuration not stated) | 4.33 | 35.5
Oc1ccccc1CNCC12CC3CC(CC(C3)C1)C2 | 18.7 | 49.7
COc1ccc(C(=O)C2CC2c2ccc(Cl)cc2)cc1 (configuration not stated) | -5.07 | 17.5
Oc1ccc(Cl)cc1CNc1nc2ccccc2[nH]1 | 4.53 | 38.6
CCn1c2c(c(=N)c3c1CCC3)CCCC2 | 8.24 | 10.1
CCOC(=O)c1cnc2ccc(CC)cc2c1O | 7.14 | 12.5
CCCCc1ccc(NS(=O)(=O)c2cc3c4c(c2)CCN4C(=O)CC3)cc1 | -2.45 | 7.2
COc1ccc(CN2CCCC(C(=O)c3ccc(C(F)(F)F)cc3)C2)c(O)c1 (configuration not stated) | 1.85 | 35.3
CCOc1cc(Cl)c(C(C)NC(=O)c2cccc(OC)c2)cc1OCC (configuration not stated) | 9.94 | 1.28
COc1ccccc1CNC(=O)CCn1c(=O)[nH]c2ccsc2c1=O | 0.338 | 9.93
COc1ccc(-c2nonc2NC(=O)c2cccc(Cl)c2)cc1OC | 15.7 | 9.93
CC(NCc1ccccc1)c1cc(Cl)ccc1O (configuration not stated) | 14.8 | 21.2
CC(C)(C)c1ccc(O)c(CNC2CCCCC2)c1 | 16.6 | 38.8
CCOc1ccc(CN2CCN(CC(O)COc3ccc(OCC(O)CN4CCN(Cc5ccc(OCC)cc5)CC4)cc3)CC2)cc1 (configuration not stated) | 17.5 | 13.2
CC(C)(C)c1ccc(C2CC3=Nc4ccccc4N(C(=O)c4ccccc4Cl)C(c4ccc(F)cc4)C3=C(O)C2)cc1 (configuration not stated) | 14.4 | 1.49
COc1ccc(-c2nc3cc(Cc4ccc5[nH]c(-c6ccc(OC)cc6)nc5c4)ccc3[nH]2)cc1 | 29.3 | 41.7
CCCCN(CCCC)S(=O)(=O)c1ccc(NC(=O)c2ccco2)cc1 | 6.97 | 8.56
CCOC(=O)c1cnc2ccc(Cl)cc2c1NCCCN(C)C | -0.993 | 2.59

Compound | inhibition at 25 µM [1] [%] | inhibition at 25 µM [2] [%]
COc1cc2c3cc1Oc1c(OC)c(OC)cc4c1C(Cc1ccc(O)c(c1)Oc1ccc(cc1)CC3N(C)CC2)N(C)CC4 (configuration not stated) | 18.5 | 3.53
COc1ccc2c(c1OC)C(=O)N1c3ccccc3N=C(c3ccc(C)cc3)CC21 (configuration not stated) | 15.2 | 4.94
CCN1CCN(c2cc(C)c3cc(NC(=O)c4ccc(OC)c(OC)c4)ccc3n2)CC1 | 12.7 | 14.8
CCCc1c(C)nc2ccc(Br)cc2c1O | 12.5 | 13.7
Oc1ccc(C(=C(Cl)Cl)c2ccc(O)cc2)cc1 | 0.782 | 9.95
CCOc1ccccc1CNC(=O)C1c2ccccc2C(=O)N(CC(C)C)C1c1cccs1 (configuration not stated) | 10.8 | 43.5
Cc1cccc(Nc2nc(N)c3ccccc3n2)c1 | -2.28 | 9.63
COCCn1c(C)nc2ccccc2c1=O | 13.6 | 6.59
C=CCc1c(C)nc2ccccc2c1O | 1.56 | 15.2
O=C(Nc1ccc(Cl)cc1C(=O)Nc1ccncc1)c1ccc(Cl)cc1Cl | 27.7 | 30
CCOC(=O)C1=C(C)N=c2sc(=Cc3cc(Cl)ccc3O)c(=O)n2C1c1ccc(OC)cc1 (configuration not stated) | 13.4 | -0.235
COc1ccccc1CNC(=O)CCn1c(=O)[nH]c2ccccc2c1=O | 11.2 | 6.74
CCOc1ccc(Nc2ccnc3cc(Cl)ccc23)cc1 | 8.59 | 54.6
CCOc1ccc(-c2nonc2NC(=O)c2cccc(C)c2)cc1OCC | 9.24 | 2.34
Cc1cccc(-n2ncc3c(O)nc(-n4nc(C)cc4NC(=O)c4cc5ccccc5o4)nc32)c1 | 48.2 | 48.5
COc1cc(C(=O)ON=C(N)Cc2cccc3ccccc23)cc(OC)c1OC | 24.2 | 59.3
COc1cc2cc(C(=O)Nc3ccccc3)c(N)nc2cc1OC | 1.39 | 17.1
COc1ccc(OC)c(C2C3=C(CC(C)(C)CC3=O)N(c3ccc(Cl)c(Cl)c3)C3=C2C(=O)CC(C)(C)C3)c1 | 7.7 | 5.56
